{"source": "paper PMC5606850", "about": "“Acidic C-terminal domains autoregulate the RNA chaperone Hfq” (eLife, 2017)", "key": {"Target and Target-U6 RNA": {"tested_on": "Target and Target-U6 RNA", "test": "RNA annealing kinetics (molecular beacon with Target and Target-U6), stopped-flow fluorescence", "type": "biochemical", "details": "16 nt Target and Target-U6 RNA; 30 °C", "experimental": "Figure 4. Shortening the CTD increases auto-inhibition by acidic residues. (A) Observed annealing rate constants for 100 nM target RNA and 50 nM molecular beacon with 0–200 nM Hfq hexamer at 30°C, measured by stopped-flow fluorescence. Black, Hfq102; red, Hfq-sCTD; cyan, Hfq65. (B) Fluorescence anisotropy assay for RNA binding and release. In stopped-flow FRET experiments, the dsRNA is released after pairing with its complementary strand ([Panja et al., 2013]; [Santiago-Frangos et al., 2016]). […] Remaining RNA was displaced from Hfq by excess ssDNA (400 nM DNA2). The averages and standard deviations for three trials are plotted for each Hfq variant. […] (D) Annealing of 5 nM ^32P-ChiX sRNA with 30 nM chiP mRNA without Hfq, or with Hfq65, Hfq102 or Hfq-sCTD, as indicated above each lane. Samples were loaded on a native polyacrylamide gel 60 min or 20 s after the components were mixed. […] (E) Fractions of free ChiX (black), ChiX·chiP dsRNA (light grey), ChiX·Hfq·chiP ternary complex (hatched) and ChiX·Hfq binary complex (dark grey) after 4 min of annealing, as analyzed by EMSA (Figure 4—figure supplement 2). […] Annealing of 100 nM Target RNA to 50 nM beacon RNA by Hfq variants was measured by stopped flow fluorescence at 30°C in 1 × TNK buffer. […] The change in fluorescence emission intensity was normalized to the maximum fluorescence within an experiment. […]"}, "Hfq65": {"molecular_target": "Hfq65 (Escherichia coli, UniProt P0A6X3)", "sequence (P0A6X3 1-65)": "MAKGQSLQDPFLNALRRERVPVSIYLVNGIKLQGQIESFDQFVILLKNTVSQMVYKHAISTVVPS", "details": "dsRNA product (D16-FAM·R16) versus ssRNA substrate (D16-FAM)", "experimental": "Annealing kinetics of molecular beacon (50 nM) to either Target or Target-A18 RNA (100 nM) by 0–200 nM Hfq hexamer, in 1X TNK (10 mM Tris·HCl pH 7.5, 50 mM NaCl, 50 mM KCl) buffer at 30°C was measured by stopped-flow fluorescence spectroscopy as described previously ([Soper et al., 2011]; [Panja and Woodson, 2012b]). Annealing progress curves were fit to single or double-exponential rate equations."}}, "data": [{"substance": "Hfq65: truncated E. coli Hfq variant lacking the CTD", "values": [{"measurement": "annealing rate of Hfq65 relative to Hfq102", "setting": "Target and Target-U6 RNA", "value": "about five times faster than full-length Hfq102"}, {"measurement": "Krel = Kd(P)/Kd(S), Hfq65", "setting": "Hfq65", "value": 2.3}]}]}
